Test results taken from US20110045101A1, “FUNGICIDAL SUBSTITUTED AZOLES” (E.I. Du Pont De Nemours and Company, priority 2009, published 2011).
Marks after values point to notes of the source that are not given here.

Experiments:
Assay type in all cases: in vivo
Details in all cases: 100 = 100% disease control
[1] = tested on: Botrytis cinerea; assay: Test C: tomato Botrytis on tomato seedlings, sprayed the day before inoculation, visual disease rating
In short: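 Rate: 200 ppm sprayed to run-off, corresponding to 500 g/ha; flagged values used 40 ppm. Vehicle was aqueous acetone (1:1) plus 250 ppm surfactant, compounds predissolved in acetone at 3% of volume. Plants were tomato seedlings.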

[2] = tested on: Alternaria solani; assay: Test D: tomato early blight, sprayed the day before inoculation, visual disease rating
In short: (§1)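 Plants received a run-off spray at 200 ppm (equivalent to 500 g/ha) or, for starred values, 40 ppm. Formulation used acetone at 3% of volume in a 50/50 acetone/water mix carrying 250 ppm Trem® 014.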

[3] = tested on: Septoria nodorum; assay: Test F: wheat glume blotch on wheat seedlings, sprayed the day before inoculation, visual disease rating
In short: as §1

[4] = tested on: Septoria tritici; assay: Test G: wheat leaf blotch on wheat seedlings, sprayed the day before inoculation, visual disease rating
In short: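 Seedlings receive a protective spray of test suspension in acetone/water carrying 250 ppm surfactant, mostly at 200 ppm and at 40 ppm where marked. They are inoculated the next day, kept saturated at 24° C for 48 h, then held at 20° C for 19 days before visual scoring.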

[5] = tested on: Puccinia recondita f. sp. tritici; assay: Test H: wheat leaf rust, test suspension sprayed after inoculation of wheat seedlings, visual disease rating
In short: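 Wheat seedlings inoculated with P. recondita spores, held 24 h saturated at 20 °C, then 2 days in growth chamber at 20 °C; compound suspension (acetone/water with Trem 014) sprayed to run-off afterwards. Rated visually; 200 ppm (≈500 g/ha) unless marked *, which denotes 40 ppm.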

[6] = tested on: Puccinia recondita f. sp. tritici; assay: Test I: wheat leaf rust on wheat seedlings, sprayed the day before inoculation, visual disease rating
In short: as §1

[7] = tested on: Erysiphe graminis f. sp. tritici; assay: Test J: wheat powdery mildew on wheat seedlings, sprayed the day before inoculation, visual disease rating
In short: as §1

[8] = 200 ppm, 0 = no control relative to controls

Compound | Test C disease control rating [1, 8] [%] | Test D disease control rating [2, 8] [%] | Test F disease control rating [3, 8] [%] | Test G disease control rating [4, 8] [%] | Test H disease control rating [5, 8] [%] | Test I disease control rating [6, 8] [%] | Test J disease control rating [7, 8] [%] | Test C disease control rating ([1]; 40 ppm (marked *)) | Test D disease control rating ([2]; 40 ppm (marked *)) | Test F disease control rating ([3]; 40 ppm (marked *)) | Test G disease control rating ([4]; 40 ppm (marked *)) | Test H disease control rating ([5]; 40 ppm (marked *)) | Test I disease control rating ([6]; 40 ppm (marked *)) | Test J disease control rating ([7]; 40 ppm (marked *))
COc1cc(F)c(-n2nnc(C)c2-c2ccc(Cl)cc2)c(F)c1 [compound 595] | 100 | 80 | 0 | 96 | 22 | 74 | 98 |  |  |  |  |  |  | 
Fc1ccc(F)c(-c2c(Br)ncn2-c2ccc(Cl)cc2)c1Cl [compound 343] | 100 | 97 | 64 | 94 | 0 | 93 | 98 |  |  |  |  |  |  | 
CCc1ccc(-n2c(C)nc(Cl)c2-c2c(F)ccc(OC)c2F)cc1 [compound 479] | 100 | 100 | 95 | 94 | 0 | 99 | 100 |  |  |  |  |  |  | 
Cc1nc(Cl)c(-c2c(F)cc(F)cc2F)n1-c1cccc(OC(F)(F)F)c1 [compound 611] | 91 | 66 | 0 | 81 | 0 | 16 | 57 |  |  |  |  |  |  | 
COc1ccc(-c2c(Cl)nc(Cl)n2-c2ccc(Cl)cc2Cl)cc1 [compound 698] | 99 | 0 | 0 | 99 | 0 | 83 | 56 |  |  |  |  |  |  | 
COc1cc(F)c(-c2c(Cl)nc(Cl)n2-c2ccc(C(F)(F)F)nc2)c(F)c1 [compound 488] | 99 | 100 | 100 | 93 | 41 | 100 | 100 |  |  |  |  |  |  | 
COc1cc(F)c(-c2c(Cl)nc(Br)n2-c2ccc(C)c(I)c2)c(F)c1 [compound 655] |  |  |  |  |  |  |  | 8* % | 0* % | 0* % | 97* % | 49* % | 9* % | 0* %
COCc1nc(Cl)n(-c2c(F)cccc2F)c1-c1ccc(Cl)cc1 [compound 467] |  |  |  |  |  |  |  | 94* % | 0* % | 0* % | 32* % | 0* % | 71* % | 96* %
COc1ccc(Cl)c(-c2c(Cl)nc(Cl)n2-c2ccc(Cl)cc2)c1F [compound 518] | 100 | 99 | 99 | 98 | 0 | 98 | 100 |  |  |  |  |  |  | 
Cc1nc(Br)n(-c2ccc(F)cc2Cl)c1-c1ccc(Cl)cc1 [compound 339] | 100 | 99 | 78 | 95 | 0 | 96 | 96 |  |  |  |  |  |  | 
COc1cc(F)c(-c2c(Cl)nc(Br)n2-c2cccc(OC(F)F)c2)c(F)c1 [compound 545] | 100 | 100 | 98 | 99 | 27 | 100 | 99 |  |  |  |  |  |  | 
COc1cc(F)c(-c2c(Cl)nc(Br)n2-c2ccc(C)c(C#N)c2)c(F)c1 [compound 607] |  |  |  |  |  |  |  | 100* % | 96* % | 31* % | 99* % | 7* % | 86* % | 82* %
COc1cc(F)c(-c2c(Cl)nc(C)n2-c2ccc(OC(F)F)cc2)c(F)c1 [compound 569] | 100 | 100 | 100 | 97 | 84 | 100 | 99 |  |  |  |  |  |  | 
